Columns and labels:
Thymidylate synthase [1] = target: T1, Thymidylate synthase (Homo sapiens, UniProt P04818); assay: Inhibitory concentration against isolated Thymidylate synthase
Thymidylate synthase [2] = target: Thymidylate synthase (Rattus norvegicus, UniProt P45352); assay: Inhibitory concentration against isolated rat thymidylate synthase
Thymidylate synthase [3] = target: T2, Thymidylate synthase (Lactobacillus casei, UniProt P00469); assay: Inhibitory concentration against isolated Lactobacillus casei Thymidylate synthase; design: species or system Lacticaseibacillus casei
T2 sequence (P00469 whole entry): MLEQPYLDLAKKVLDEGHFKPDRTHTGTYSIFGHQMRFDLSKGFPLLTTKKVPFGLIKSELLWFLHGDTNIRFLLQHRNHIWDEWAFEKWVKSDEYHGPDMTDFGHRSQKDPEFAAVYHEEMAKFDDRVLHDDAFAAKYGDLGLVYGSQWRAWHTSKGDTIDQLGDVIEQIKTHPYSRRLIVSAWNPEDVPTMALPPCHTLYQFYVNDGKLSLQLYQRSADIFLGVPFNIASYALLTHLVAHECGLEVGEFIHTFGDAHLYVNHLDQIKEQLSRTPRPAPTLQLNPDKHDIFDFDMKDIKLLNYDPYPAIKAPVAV

Dihydrofolate reductase [4] = target: Dihydrofolate reductase (Escherichia coli, UniProt P0ABQ4)
Description: Inhibitory concentration against isolated Escherichia coli Dihydrofolate reductase

Dihydrofolate reductase [5] = target: T3, Dihydrofolate reductase (Homo sapiens, UniProt P00374); assay: Inhibitory concentration against isolated human Dihydrofolate reductase
T3 sequence (P00374 whole entry): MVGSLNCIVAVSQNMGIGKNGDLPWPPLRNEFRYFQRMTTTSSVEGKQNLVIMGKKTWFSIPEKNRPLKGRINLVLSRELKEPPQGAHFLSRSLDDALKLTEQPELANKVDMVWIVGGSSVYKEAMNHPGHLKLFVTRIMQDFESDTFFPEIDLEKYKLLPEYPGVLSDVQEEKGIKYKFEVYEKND

Dihydrofolate reductase [6] = target: Dihydrofolate reductase (Lactobacillus casei, UniProt P00381); assay: Inhibitory concentration against isolated Lactobacillus casei Dihydrofolate reductase; design: species or system Lacticaseibacillus casei
Dihydrofolate reductase [7] = target: T4, Dihydrofolate reductase (Pneumocystis carinii, UniProt P16184)
T4 sequence (P16184 whole entry): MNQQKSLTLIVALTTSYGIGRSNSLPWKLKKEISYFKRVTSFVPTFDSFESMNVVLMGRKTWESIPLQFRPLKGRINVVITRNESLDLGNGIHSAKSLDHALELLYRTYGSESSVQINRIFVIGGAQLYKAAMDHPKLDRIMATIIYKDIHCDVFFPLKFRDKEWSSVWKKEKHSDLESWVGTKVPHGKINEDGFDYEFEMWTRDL
Description: Inhibitory concentration against isolated Pneumocystis carinii DHFR (Dihydrofolate reductase)

[8] = target: T5, Bifunctional dihydrofolate reductase-thymidylate synthase (Toxoplasma gondii, UniProt Q07422)
T5 sequence (Q07422 whole entry): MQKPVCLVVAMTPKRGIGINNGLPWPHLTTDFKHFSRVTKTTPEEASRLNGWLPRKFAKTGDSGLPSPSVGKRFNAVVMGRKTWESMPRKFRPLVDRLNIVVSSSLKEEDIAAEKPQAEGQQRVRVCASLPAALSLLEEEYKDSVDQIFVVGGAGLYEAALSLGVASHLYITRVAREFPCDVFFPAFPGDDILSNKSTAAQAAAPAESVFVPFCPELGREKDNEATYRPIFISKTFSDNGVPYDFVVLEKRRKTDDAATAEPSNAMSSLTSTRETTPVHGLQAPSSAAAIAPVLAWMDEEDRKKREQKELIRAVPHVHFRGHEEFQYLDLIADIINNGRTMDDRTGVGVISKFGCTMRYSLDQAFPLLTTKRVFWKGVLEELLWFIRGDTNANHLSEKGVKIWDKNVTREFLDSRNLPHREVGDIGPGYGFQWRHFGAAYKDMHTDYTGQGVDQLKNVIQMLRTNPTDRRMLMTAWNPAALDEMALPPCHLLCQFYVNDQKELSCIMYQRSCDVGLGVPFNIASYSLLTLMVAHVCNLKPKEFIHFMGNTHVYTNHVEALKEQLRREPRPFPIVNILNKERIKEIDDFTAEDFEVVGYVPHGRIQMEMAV
Description: Inhibitory concentration against isolated Toxoplasma gondii DHFR (dihydrofolate reductase)

Homo sapiens [9] = species on record: Homo sapiens; assay: The maximum velocity at which substrate concentration is stabilised is determined for compound as substrate for recombinant human folyl-poly-glutamate synthase (FPGS); assay type: ADME; conditions: in vivo
carcinoma cell line [10] = assay: Tested for their inhibition of growth of FaDu head on carcinoma cell lines.; assay type: functional, cell-based; conditions: Homo sapiens
Homo sapiens [11] = species on record: Homo sapiens; assay: Ratio between Vmax and Km for compound as substrate for recombinant human folyl-poly-glutamate synthase (FPGS); assay type: ADME; conditions: in vivo
CCRF-CEM [12] = assay: Tested for their growth inhibition of CCRF-CEM human leukemia subline resistant as a result of decrease polyglutamylation.; assay type: functional, cell-based
CCRF-CEM [13] = assay: Concentration required to inhibit growth against CCRF-CEM cell; assay type: functional, cell-based; conditions: Homo sapiens
carcinoma cell line [14] = assay: Tested for their inhibition of growth of CCRF-CEM human leukemia on carcinoma cell lines.; assay type: functional, cell-based
Thymidylate synthase [15] = target: Thymidylate synthase (Escherichia coli, UniProt C3SWJ7); assay: Inhibitory concentration against isolated Escherichia coli Thymidylate synthase
CCRF-CEM [16] = assay: Growth inhibition of human T-lymphoblastic leukemia cell line CCRF-CEM in culture; assay type: functional; conditions: read-out: ED50 (the source's name)
Thymidylate synthase [17] = target: T1, Thymidylate synthase; assay: Inhibitory concentration against human TS
[18] = target: Trifunctional purine biosynthetic protein adenosine-3 (Homo sapiens, UniProt P22102); assay: Inhibition against GAR transformylase; In active
[19] = target: T6, Bifunctional purine biosynthesis protein ATIC (Homo sapiens, UniProt P31939); assay: Inhibition against […]-4-carboxamide ribonucleotide formyltransferase (AICAR formyltransferase); In active
ACHN = assay: Cytotoxicity was tested against renal cancer ACHN tumor cell lines.; assay type: functional; conditions: Homo sapiens
CCRF-CEM [20] = assay: Tested for their growth inhibition of CCRF-CEM human leukemia subline resistant as a result of decrease in uptake.; assay type: functional, cell-based
CCRF-CEM [21] = assay: Tested for their growth inhibition of CCRF-CEM human leukemia subline resistant as a result of increase in wild type DHFR protein and activity.; assay type: functional, cell-based
MCF7 = assay: Cytotoxicity was tested against breast cancer MCF-7 tumor cell lines.; assay type: functional; conditions: Homo sapiens
SF-539 = assay: Cytotoxicity was tested against CNS cancer SF-539 tumor cell lines.; assay type: functional; conditions: Homo sapiens
NCI-H226 = assay: Cytotoxicity against non small cell lung cancer NCI-H226 tumor cell lines.; assay type: functional; conditions: Homo sapiens
NCI-H460 = assay: Cytotoxicity against non small cell lung cancer NCI-H460 tumor cell lines.; assay type: functional; conditions: Homo sapiens
HCC 2998 = assay: Cytotoxicity against colon cancer HCC2998 tumor cell lines.; assay type: functional; conditions: Homo sapiens
HCT-116 = assay: Cytotoxicity was tested against colon cancer HCT116 tumor cell lines.; assay type: functional; conditions: Homo sapiens
MOLT-4 = assay: Cytotoxicity against leukemia MOLT-4 tumor cell lines.; assay type: functional; conditions: Homo sapiens
Thymidylate synthase [22] = target: T1, Thymidylate synthase; assay: Inhibitory concentration against human Thymidylate synthase(TS)
FaDu = assay: Growth inhibition of human squamous cell carcinoma FaDu in culture; assay type: functional; conditions: read-out: ED50 (the source's name)
[23] = target: T6, Bifunctional purine biosynthesis protein ATIC; assay: Inhibition against […]-4-carboxamide ribonucleotide formyltransferase (AICAR formyltransferase); inactive
[24] = substrate: Cc1nc(N)nc2[nH]cc(CCc3ccc(C(=O)N[C@@H](CCC(=O)O)C(=O)O)cc3)c12; assay: (§1) Activity as substrate for recombinant human folyl-poly-glutamate synthase (FPGS).
[25] = substrate: Cc1nc(N)nc2c1c(CCc1ccc(C(=O)N[C@@H](CCC(=O)O)C(=O)O)cc1)cn2Cc1ccccc1; assay: as §1

Sequence of Thymidylate synthase (Rattus norvegicus, UniProt P45352) (P45352 whole entry): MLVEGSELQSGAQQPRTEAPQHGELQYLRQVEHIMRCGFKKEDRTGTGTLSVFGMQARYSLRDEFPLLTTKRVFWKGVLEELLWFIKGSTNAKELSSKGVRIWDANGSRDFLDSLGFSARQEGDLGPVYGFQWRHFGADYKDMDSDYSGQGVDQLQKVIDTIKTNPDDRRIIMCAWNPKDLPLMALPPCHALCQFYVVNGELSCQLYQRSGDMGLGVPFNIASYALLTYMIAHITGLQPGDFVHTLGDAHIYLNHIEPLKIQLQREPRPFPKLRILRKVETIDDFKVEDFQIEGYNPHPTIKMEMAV
Sequence of Dihydrofolate reductase (Lactobacillus casei, UniProt P00381) (P00381 whole entry): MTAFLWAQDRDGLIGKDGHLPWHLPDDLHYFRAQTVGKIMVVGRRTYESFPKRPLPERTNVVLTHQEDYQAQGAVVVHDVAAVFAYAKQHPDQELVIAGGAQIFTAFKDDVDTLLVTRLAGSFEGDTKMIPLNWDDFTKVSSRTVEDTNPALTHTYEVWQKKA
T1 sequence (P04818 whole entry): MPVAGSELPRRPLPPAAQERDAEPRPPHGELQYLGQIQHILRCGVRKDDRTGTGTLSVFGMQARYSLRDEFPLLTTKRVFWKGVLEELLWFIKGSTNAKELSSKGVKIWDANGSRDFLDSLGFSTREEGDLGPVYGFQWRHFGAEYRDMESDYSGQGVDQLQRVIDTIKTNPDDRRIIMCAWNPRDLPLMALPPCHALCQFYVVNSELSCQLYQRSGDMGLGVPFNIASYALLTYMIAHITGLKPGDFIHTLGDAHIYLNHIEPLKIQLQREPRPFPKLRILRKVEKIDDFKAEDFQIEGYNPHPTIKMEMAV
Sequence of Trifunctional purine biosynthetic protein adenosine-3 (P22102 whole entry): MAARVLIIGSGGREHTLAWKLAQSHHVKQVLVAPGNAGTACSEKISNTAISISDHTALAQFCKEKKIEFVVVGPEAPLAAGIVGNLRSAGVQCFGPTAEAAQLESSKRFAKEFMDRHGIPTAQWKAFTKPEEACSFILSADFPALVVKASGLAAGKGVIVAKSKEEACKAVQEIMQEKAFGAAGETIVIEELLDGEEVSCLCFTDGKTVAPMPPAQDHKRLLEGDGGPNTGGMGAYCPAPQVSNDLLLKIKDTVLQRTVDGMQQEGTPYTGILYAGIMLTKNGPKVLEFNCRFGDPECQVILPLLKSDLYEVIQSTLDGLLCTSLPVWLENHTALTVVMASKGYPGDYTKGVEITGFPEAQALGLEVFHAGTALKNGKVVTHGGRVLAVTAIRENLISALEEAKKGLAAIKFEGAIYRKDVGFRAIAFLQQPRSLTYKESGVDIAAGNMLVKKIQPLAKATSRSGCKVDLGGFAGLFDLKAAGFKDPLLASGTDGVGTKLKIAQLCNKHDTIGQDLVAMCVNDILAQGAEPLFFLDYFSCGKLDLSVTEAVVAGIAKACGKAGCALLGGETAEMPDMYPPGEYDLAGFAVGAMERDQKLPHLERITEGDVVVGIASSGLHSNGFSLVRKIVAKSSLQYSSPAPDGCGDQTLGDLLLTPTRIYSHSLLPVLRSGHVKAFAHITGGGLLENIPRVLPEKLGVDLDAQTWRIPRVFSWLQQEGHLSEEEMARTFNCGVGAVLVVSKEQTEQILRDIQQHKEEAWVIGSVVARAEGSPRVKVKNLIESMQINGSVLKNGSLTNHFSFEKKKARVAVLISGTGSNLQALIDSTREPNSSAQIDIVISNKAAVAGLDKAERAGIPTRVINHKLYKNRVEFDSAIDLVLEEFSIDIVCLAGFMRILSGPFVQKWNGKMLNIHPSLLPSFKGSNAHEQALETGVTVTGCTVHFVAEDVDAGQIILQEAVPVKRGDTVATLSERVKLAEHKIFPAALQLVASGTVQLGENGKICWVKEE
T6 sequence (P31939 whole entry): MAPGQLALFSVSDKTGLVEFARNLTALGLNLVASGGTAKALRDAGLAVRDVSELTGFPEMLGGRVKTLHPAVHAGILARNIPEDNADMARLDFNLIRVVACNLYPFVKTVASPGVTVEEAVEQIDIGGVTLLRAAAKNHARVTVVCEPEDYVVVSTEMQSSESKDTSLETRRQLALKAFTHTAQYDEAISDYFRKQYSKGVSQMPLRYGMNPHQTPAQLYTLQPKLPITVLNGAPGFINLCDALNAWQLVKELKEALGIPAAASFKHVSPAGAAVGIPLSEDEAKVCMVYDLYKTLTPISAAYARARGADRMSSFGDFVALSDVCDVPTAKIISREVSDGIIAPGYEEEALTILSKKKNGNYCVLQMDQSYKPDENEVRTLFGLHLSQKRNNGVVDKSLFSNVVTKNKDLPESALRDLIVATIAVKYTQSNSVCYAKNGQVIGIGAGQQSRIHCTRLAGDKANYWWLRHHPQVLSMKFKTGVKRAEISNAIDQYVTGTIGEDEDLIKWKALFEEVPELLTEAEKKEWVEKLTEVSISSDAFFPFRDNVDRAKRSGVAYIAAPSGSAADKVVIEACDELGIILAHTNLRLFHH
Sequence of Thymidylate synthase (Escherichia coli, UniProt C3SWJ7) (C3SWJ7 whole entry): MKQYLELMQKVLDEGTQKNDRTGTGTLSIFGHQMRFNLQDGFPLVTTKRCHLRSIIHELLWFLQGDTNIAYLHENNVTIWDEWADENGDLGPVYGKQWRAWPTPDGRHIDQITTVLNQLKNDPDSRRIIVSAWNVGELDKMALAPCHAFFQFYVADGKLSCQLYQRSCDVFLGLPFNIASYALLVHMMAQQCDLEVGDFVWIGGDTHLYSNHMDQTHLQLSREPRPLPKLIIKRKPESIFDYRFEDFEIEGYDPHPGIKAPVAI
Sequence of Dihydrofolate reductase (Escherichia coli, UniProt P0ABQ4) (P0ABQ4 whole entry): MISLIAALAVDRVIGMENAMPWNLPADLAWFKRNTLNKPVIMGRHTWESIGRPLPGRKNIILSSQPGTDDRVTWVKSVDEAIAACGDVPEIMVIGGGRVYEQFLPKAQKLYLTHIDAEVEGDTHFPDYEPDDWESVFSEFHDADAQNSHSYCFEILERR

## Nc1nc2[nH]cc(CCc3ccc(C(=O)N[C@@H](CCC(=O)O)C(=O)O)cc3)c2c(=O)[nH]1 [PEMETREXED]
Thymidylate synthase [1]
  IC50: 110 µM
Thymidylate synthase [2]
  IC50: 20000 nM
Thymidylate synthase [3]
  IC50: 20 µM

## Cc1cn([C@@H]2O[C@H](COP(=O)(O)O)[C@@H](O)[C@H]2O)c(=O)[nH]c1=O
Dihydrofolate reductase [4]
  IC50: 20 nM
Dihydrofolate reductase [5]
  IC50: 340 µM
Dihydrofolate reductase [6]
  IC50: 350 nM
Dihydrofolate reductase [7]
  IC50: 15 µM
[8]
  IC50: 3.4 µM

## Cc1nc(N)nc2c1c(CCc1ccc(C(=O)N[C@@H](CCC(=O)O)C(=O)O)cc1)cn2Cc1ccccc1
Homo sapiens [9]
  Vmax: 0.65
Carcinoma cell line [10]
  IC50: > 20 µM
Thymidylate synthase [1]
  IC50: > 16 µM
Dihydrofolate reductase [4]
  IC50: > 19000 nM
Dihydrofolate reductase [5]
  IC50: > 19 µM
Thymidylate synthase [2]
  IC50: > 16000 nM
Homo sapiens [11]
  Ratio: 0.02
Dihydrofolate reductase [6]
  IC50: 19000 nM
CCRF-CEM [12]
  IC50: > 20 µM
Dihydrofolate reductase [7]
  IC50: > 19 µM
CCRF-CEM [13]
  IC50: > 10 µM
Carcinoma cell line [14]
  IC50: > 10 µM
Thymidylate synthase [15]
  IC50: 16 µM
Thymidylate synthase [3]
  IC50: 0.31 µM
[8]
  IC50: > 19 µM

## Cc1nc2ccc(CN(C)c3ccc(C(=O)N[C@@H](CCC(=O)O)C(=O)O)s3)cc2c(=O)[nH]1 [RALTITREXED]
Thymidylate synthase [2]
  IC50: 900 nM
Thymidylate synthase [3]
  IC50: 8 µM

## Nc1nc(N)c2c(CNCc3ccc(C(=O)N[C@@H](CCC(=O)O)C(=O)O)cc3)coc2n1
CCRF-CEM [16]
  EC50: 30500 nM

## Nc1nc(N)c2c(CNc3ccc(C(=O)N[C@@H](CCC(=O)O)C(=O)O)cc3)coc2n1
Thymidylate synthase [17]
  IC50: > 200 µM
[18]
  IC50: Not Active
[19]
  IC50: Not Active

## Cc1nc(N)nc2[nH]cc(CCc3ccc(C(=O)N[C@@H](CCC(=O)O)C(=O)O)cc3)c12
Homo sapiens [9]
  Vmax: 0.17
Carcinoma cell line [10]
  EC50: 7 nM
ACHN
  GI50: < 10 nM
CCRF-CEM [20]
  EC50: 575 nM
CCRF-CEM [21]
  EC50: 158 nM
MCF7
  GI50: 169 nM
Thymidylate synthase [1]
  IC50: 1 µM
SF-539
  GI50: < 10 nM
Dihydrofolate reductase [5]
  IC50: 0.8 µM
Thymidylate synthase [2]
  IC50: 2000 nM
Dihydrofolate reductase [6]
  IC50: 24 nM
NCI-H226
  GI50: 61.4 nM
NCI-H460
  GI50: < 10 nM
HCC 2998
  GI50: < 10 nM
CCRF-CEM [12]
  EC50: 18.5 nM
Dihydrofolate reductase [7]
  IC50: 1.2 µM
CCRF-CEM [13]
  EC50: 12.5 nM
Carcinoma cell line [14]
  EC50: 12.5 nM
Thymidylate synthase [15]
  IC50: 2 µM
HCT-116
  GI50: 7.11 µM
Thymidylate synthase [3]
  IC50: 9 µM
MOLT-4
  GI50: < 10 nM
[8]
  IC50: 1.2 µM

## CN(Cc1coc2nc(N)nc(N)c12)c1ccc(C(=O)N[C@@H](CCC(=O)O)C(=O)O)cc1 [FURO[2,3D]PYRIMIDINE ANTIFOLATE]
Thymidylate synthase [22]
  IC50: > 200 µM
FaDu
  EC50: 55 nM
CCRF-CEM [16]
  EC50: 47 nM
[18]
  IC50: Not Active
[23]
  IC50: Not Active

## Nc1nc(N)c2nc(CNc3ccc(C(=O)N[C@@H](CCC(=O)O)C(=O)O)cc3)cnc2n1 [AMINOPTERIN]
Homo sapiens [9]
  Vmax: 1
Homo sapiens [11]
  Ratio: 0.21

## Nc1nc(N)c2c(CCc3ccc(C(=O)N[C@@H](CCC(=O)O)C(=O)O)cc3)coc2n1
CCRF-CEM [16]
  EC50: 250 nM

B1: Folylpolyglutamate synthase, mitochondrial (Homo sapiens), Q05932 (protein)
chain: MSRARSHLRAALFLAAASARGITTQVAARRGLSAWPVPQEPSMEYQDAVRMLNTLQTNAGYLEQVKRQRGDPQTQLEAMELYLARSGLQVEDLDRLNIIHVTGTKGKGSTCAFTECILRSYGLKTGFFSSPHLVQVRERIRINGQPISPELFTKYFWRLYHRLEETKDGSCVSMPPYFRFLTLMAFHVFLQEKVDLAVVEVGIGGAYDCTNIIRKPVVCGVSSLGIDHTSLLGDTVEKIAWQKGGIFKQGVPAFTVLQPEGPLAVLRDRAQQISCPLYLCPMLEALEEGGPPLTLGLEGEHQRSNAALALQLAHCWLQRQDRHGAGEPKASRPGLLWQLPLAPVFQPTSHMRLGLRNTEWPGRTQVLRRGPLTWYLDGAHTASSAQACVRWFRQALQGRERPSGGPEVRVLLFNATGDRDPAALLKLLQPCQFDYAVFCPNLTEVSSTGNADQQNFTVTLDQVLLRCLEHQQHWNHLDEEQASPDLWSAPSPEPGGSASLLLAPHPPHTCSASSLVFSCISHALQWISQGRDPIFQPPSPPKGLLTHPVAHSGASILREAAAIHVLVTGSLHLVGGVLKLLEPALSQ
[24]
  Km: < 1 µM
[25]
  Km: 37 µM

Reference: ChEMBL document CHEMBL1133086, “Design, synthesis, and X-ray crystal structure of a potent dual inhibitor of thymidylate synthase and dihydrofolate reductase as an antitumor agent” (J Med Chem, 2000)
